This passage reports IC50 results from patent publication US20040006236A1, “Diaminopropionic acid derivatives” (priority 1999, published 2004).

Molecules are shown by their SMILES.

Assay [1] concerns T lymphocyte proliferation (C57BI/6 spleen cells with irradiated BALB/c spleen cells). The experiment in a line: Mixed lymphocyte reaction (MLR), one-way. Format: cell-based, mice. As to conditions: Mus musculus, T-lymphocyte; read-out: MLR IC50. An excerpt:
Admixture of murine spleen cells from two different inbred strains of mice induces proliferation of T lymphocytes. The magnitude of T cell proliferation depends on the extent of disparity in the major histocompatibility antigens between the two strains. Splenic T lymphocytes from both strains proliferate due to alloantigen recognition, a process for which the interaction of ICAM-1 on antigen-presenting cells with LFA-1 on lymphocytes is necessary. The ability of antagonists to inhibit T lymphocyte proliferation following recognition of alloantigens was assessed in a one-way MLR, where cells from one strain were irradiated to permit measurement of the proliferative response of cells from the other strain. Spleen cells were washed three times in tissue culture medium (TCM; see below). […] One hundred microliters of serial dilutions of antagonists or TCM were added to the spleen cell mixture. The total volume in each well was 200 μL. TCM was RPMI1640 containing 10% heat-inactivated fetal bovine serum, […] L-glutamine, 100 Units/ml each of penicillin and streptomycin and 5×10^−5 M 2-mercaptoethanol. Dilutions of antagonists were prepared in TCM. Plates were incubated in 5% CO2 for 3 days. On the third day, 0.5 μCi of tritiated thymidine (10 μCi/mL) was added to all the wells. Cells were harvested 6 h later on a 96-well plate harvester and the amount of tritiated thymidine incorporated was assessed in a liquid scintillation counter.

The subject of assay [2] is Mac-1 and LFA-1-mediated neutrophil binding to immobilized ICAM-1. Kind of assay: Neutrophil (Mac-1 and LFA-1)/ICAM-1 cell-based screening assay. Particulars: human neutrophils. As for the experimental part:
Both Mac-1 and LFA-1 are expressed on the cell surface of neutrophils. The ability of antagonists to inhibit Mac-1 and LFA-1-mediated neutrophil binding to immobilized ICAM-1 was quantitated by a cell based assay. Typically, fusion protein consisting of the entire extracellular domain of human ICAM-1 and the Fc domain of human IgG (5dICAM-Ig) was coated onto 96 well microtiter plates (1 μg in 100 μL TBS) overnight at 4° C. The plates were then blocked with 150 μL of 10% PVP in TBS for 1 h at 37° C. Plates were washed 3 times (150 μL each) with TBS. Human neutrophils were purified from whole blood from healthy volunteers using LSM (ICN). Cells (8×10^6/mL) were fluorescently labeled with 6-carboxyfluorescein (100 μg/mL) for 40 min in IMDM/1 mM MgCl2/1.2 mM CaCl2 as described in Example 287. Cells (8×10^6/mL) were stimulated with f-Met-Leu-Phe (10 μM) for 5 min at room temperature just prior to being used in the assay, and diluted to 2×10^6 cells/mL with RPMI/0.05% BSA/0.2 mM MnCl2. Stock solutions (10 mM) of test compounds were diluted to 2.5 mM with DMSO. A series of 1:4 dilutions in DMSO were performed to achieve a concentration range of 38.2 nM-2.5 mM. Each sample was further diluted 50-fold with RPMI/0.05% BSA/0.2 mM MnCl2. Equal volumes of labeled cells were then added to assay tubes containing diluted compound. Final concentrations of compound tested in the assay ranged from 0.38 nM-25 μM with a cell concentration of 1×10^6 per mL. Cells were incubated for 10 min at 37° C. with gentle shaking, then dispensed (100 μL per well) onto ICAM-1 coated plates and incubated for 30 min at 37° C./5% CO2. Unbound cells were washed and plates were read on a Cytofluor™ 2300 (Millipore) as described in Example 384.

The target of assay [3] is T1, LFA-1 binding to immobilized ICAM-1 (Homo sapiens, UniProt P05107+P20701).
T1 construct: made in house; host or cells: transfected 293 cells (LFA-1)
Kind of assay: LFA-1/ICAM-1 protein-protein assay (solid-phase ELISA). As to conditions: read-out: LFA-1/ICAM-1 Protein-Protein Assay IC50. The essentials:
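Human 5dICAM-Ig (ICAM-1 extracellular domain–IgG Fc) coated on plates; membrane-bound LFA-1 from transfected 293 cells (280 ng/mL) added with compound in Mn2+-containing HEPES buffer pH 7.2, 2 h at 37° C. Bound LFA-1 detected via anti-β2 antibody and HRP/TMB at 450 nm; IC50s determined.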
(In general: ELISA stands for enzyme-linked immunosorbent assay.)

In assay [4] the test system is cell-surface Mac-1 adhesion to immobilized fibrinogen (HL-60 cells). Kind of assay: Mac-1/Fibrinogen cell-based screening assay. The arrangement: species or system human. As to conditions: Homo sapiens, HL-60, HL-60 cells; read-out: Mac-1/Fgn Cell based Assay IC50. As for the experimental part:
Cellular Mac-1/Fibrinogen antagonist activity, defined as the ability to inhibit cell-surface Mac-1 adhesion to immobilized fibrinogen, was quantitated by a cell based assay. Human fibrinogen was coated onto 96 well microtiter plates (1 μg in 100 μL TBS) overnight at 4° C. The plates were then blocked with 150 μL of 10% polyvinyl pyrrolidone (PVP) in TBS for 1 h at 37° C. Plates were washed 3 times (150 μL each) with TBS. […] A ten-fold excess of volume of the same buffer was added and cells were centrifuged. The medium was decanted and cells were resuspended at a concentration of 2×10^6 cells/mL in RPMI/0.05% BSA/0.2 mM MnCl2. Stock solutions (10 mM in DMSO) of test compounds were diluted to 2.5 mM with DMSO. […] Each sample was further diluted 50-fold with RPMI/0.05% BSA/0.2 mM MnCl2. Equal volumes of labeled cells were then added to assay tubes containing diluted compounds. […] Cells were incubated for 10 min at 37° C. with gentle shaking, then dispensed (100 μL per well) onto fibrinogen coated plates and incubated for 30 min at 37° C./5% CO2. Unbound cells were gently washed with TBS two times.

T1 sequence (P20701 26-1170): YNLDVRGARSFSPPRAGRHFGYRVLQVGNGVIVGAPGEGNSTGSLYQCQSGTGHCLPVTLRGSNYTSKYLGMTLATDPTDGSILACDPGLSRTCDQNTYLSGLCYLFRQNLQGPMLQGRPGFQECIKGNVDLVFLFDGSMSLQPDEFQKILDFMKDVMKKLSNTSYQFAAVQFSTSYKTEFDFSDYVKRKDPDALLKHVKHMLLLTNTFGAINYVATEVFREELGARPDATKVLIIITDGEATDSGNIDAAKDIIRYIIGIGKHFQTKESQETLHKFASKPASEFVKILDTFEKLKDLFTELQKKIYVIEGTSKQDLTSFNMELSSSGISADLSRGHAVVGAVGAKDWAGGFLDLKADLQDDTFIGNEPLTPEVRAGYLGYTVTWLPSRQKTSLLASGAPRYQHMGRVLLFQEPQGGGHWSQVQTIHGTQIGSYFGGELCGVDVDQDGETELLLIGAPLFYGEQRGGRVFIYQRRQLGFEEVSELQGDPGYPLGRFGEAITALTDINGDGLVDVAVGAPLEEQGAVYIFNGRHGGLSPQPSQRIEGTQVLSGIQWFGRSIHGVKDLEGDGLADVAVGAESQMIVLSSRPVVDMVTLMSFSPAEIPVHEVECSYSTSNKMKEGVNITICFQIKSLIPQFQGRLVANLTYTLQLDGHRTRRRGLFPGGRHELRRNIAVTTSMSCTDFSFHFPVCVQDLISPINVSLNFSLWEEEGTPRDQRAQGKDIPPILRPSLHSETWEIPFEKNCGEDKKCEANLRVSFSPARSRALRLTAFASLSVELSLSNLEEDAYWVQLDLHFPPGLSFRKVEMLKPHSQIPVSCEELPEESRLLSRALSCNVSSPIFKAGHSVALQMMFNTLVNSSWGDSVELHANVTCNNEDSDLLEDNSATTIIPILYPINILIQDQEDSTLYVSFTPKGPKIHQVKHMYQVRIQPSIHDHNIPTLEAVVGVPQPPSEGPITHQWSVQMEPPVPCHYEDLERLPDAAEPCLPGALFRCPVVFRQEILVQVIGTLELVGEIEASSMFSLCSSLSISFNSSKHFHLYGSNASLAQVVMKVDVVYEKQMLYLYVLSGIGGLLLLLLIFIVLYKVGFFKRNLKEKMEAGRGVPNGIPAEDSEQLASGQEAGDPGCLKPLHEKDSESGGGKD
T1 sequence (P05107 23-769): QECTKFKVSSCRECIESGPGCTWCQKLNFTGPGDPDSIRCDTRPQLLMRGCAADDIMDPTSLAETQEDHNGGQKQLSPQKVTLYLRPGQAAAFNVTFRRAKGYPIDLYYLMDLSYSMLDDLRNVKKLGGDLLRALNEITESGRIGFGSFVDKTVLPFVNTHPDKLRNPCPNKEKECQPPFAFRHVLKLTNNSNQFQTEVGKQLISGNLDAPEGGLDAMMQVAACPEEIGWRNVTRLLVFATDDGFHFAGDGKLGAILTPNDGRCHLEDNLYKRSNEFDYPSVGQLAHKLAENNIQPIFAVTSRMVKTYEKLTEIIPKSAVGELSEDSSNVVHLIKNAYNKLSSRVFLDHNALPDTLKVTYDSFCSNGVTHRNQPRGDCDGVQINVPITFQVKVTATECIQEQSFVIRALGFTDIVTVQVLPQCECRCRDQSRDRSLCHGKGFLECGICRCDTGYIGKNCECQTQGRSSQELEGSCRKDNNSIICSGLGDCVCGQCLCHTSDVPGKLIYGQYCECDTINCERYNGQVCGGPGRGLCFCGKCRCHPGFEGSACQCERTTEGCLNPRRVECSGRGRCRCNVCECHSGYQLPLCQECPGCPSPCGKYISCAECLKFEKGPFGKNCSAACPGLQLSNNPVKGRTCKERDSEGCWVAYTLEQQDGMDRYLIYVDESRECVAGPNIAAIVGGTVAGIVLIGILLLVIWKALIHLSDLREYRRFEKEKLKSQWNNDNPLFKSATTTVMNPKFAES

As to `Cc1cc(C(=O)NCc2cccc(O)c2)cc(Cl)c1C(=O)N[C@@H](CNC(=O)c1cc(O)cc(O)c1)C(=O)O` [Example 341, N-[2-chloro-4-[[[(3-hydroxyphenyl)methyl]amino]carbonyl]-6-methylbenzoyl]-3-(3,5-dihydroxybenzoylamino)-L-alanine], the IC50 in assay [1] was determined as 0.003 µM; in assay [2], 0.0003 µM; in assay [3] it was 0.0003 µM.

On to `O=C(NCc1cccc(O)c1)c1cc(Cl)c(C(=O)N[C@@H](CNC(=O)c2cccc(Cl)c2)C(=O)O)c(Cl)c1` [Example 348, 3-[(3-chlorobenzoyl)amino]-N-[2,6-dichloro-4-[[[(3-hydroxyphenyl)methyl]amino]carbonyl]benzoyl]-L-alanine], for which the IC50 in assay [4] is 0.0198 µM; in assay [1], 0.173 µM; in assay [3], 0.0013 µM.

In the case of `Cc1cccc(C(=O)NC[C@H](NC(=O)c2c(Cl)cc(C(=O)NCc3cccc(O)c3)cc2Cl)C(=O)O)c1` [Example 352], the IC50 is 0.028 µM in assay [4], 0.091 µM in assay [1] and 0.0012 µM in assay [3].

In the case of `O=C(NCc1cccc(O)c1)c1cc(Cl)c(C(=O)N[C@@H](CNC(=O)c2sccc2Cl)C(=O)O)c(Cl)c1` [Example 355], the IC50 in assay [4] was 0.0177 µM; in assay [1] it was 0.086 µM; in assay [3], 0.0009 µM.

For `O=C(NCc1cccc(O)c1)c1cc(Cl)c(C(=O)N[C@@H](CNC(=O)c2cc(Br)c(Br)s2)C(=O)O)c(Cl)c1` [Example 356], the IC50 came out at 0.081 µM in assay [4], 1.76 µM in assay [1] and 0.0034 µM in assay [3].

Turning to `Cc1ccsc1C(=O)NC[C@H](NC(=O)c1c(Cl)cc(C(=O)NCc2cccc(O)c2)cc1Cl)C(=O)O` [Example 357], the IC50 in assay [4] amounted to 0.023 µM; in assay [1], 0.021 µM; in assay [3], 0.0005 µM.
